Measurements as given in patent US7541477B2, “Antagonists to melanin-concentrating hormone receptor comprising benzimidazole derivative as active ingredient” (Banyu Pharmaceutical Co., Ltd., priority 2002, dated 2009).
Counter-ions that a name gives are not always drawn.

These compounds were tested against T1, human MCH-1R (Homo sapiens, UniProt Q99705) (assay: MCH binding inhibition assay ([125I]MCH, membranes of CHO-K1 cells expressing MCH-1R)). Conditions: 50 pM [125I]MCH, 25° C., 1 hour; read-out: 50% Inhibitory Concentration against MCH-Binding, IC50.
T1 construct: expressed in transfected cells; host or cells: CHO-K1 (American Type Culture Collection), membrane preparation
Protocol: cDNA sequence encoding human MCH-1R [FEBS Letters, 398:253(1996), Biochimica et Biophisica Acta, 1401: 216(1998)] was cloned into plasmid vector pEF/mic/cyto (Invitrogen). The expression vector so obtained was transfected into host cells CHO-K1 (American Type Culture Collection) by using Lipofectamine Plus Reagent (Life Technologies) to give MCH-1R expressing cells.
Membrane preparation generated from the cells expressing MCH-1R was incubated together with a test compound and 50 pM [^125I]MCH (NEN) in assay buffer (50 mM Tris buffer, pH7.4, containing 10 mM magnesium chloride, 2 mM ethylenediaminetetraacetic acid, 0.01% Bacitracin and 0.2% bovine serum albumin) at 25° C. for 1 hour, then filtered through a glass filter GF/C (Whatman). After washing the glass filter with 50 mM Tris buffer, pH7.4, containing 10 mM magnesium chloride, 2 mM ethylenediaminetetraacetic acid and 0.04% Tween-20, radioactivity on the glass filter was measured. Nonspecific binding was measured in the presence of 1 μM human MCH and a 50% inhibitory concentration (IC50) of the test compound against specific [^125I]MCH-binding was determined.

T1 sequence (Q99705 whole entry): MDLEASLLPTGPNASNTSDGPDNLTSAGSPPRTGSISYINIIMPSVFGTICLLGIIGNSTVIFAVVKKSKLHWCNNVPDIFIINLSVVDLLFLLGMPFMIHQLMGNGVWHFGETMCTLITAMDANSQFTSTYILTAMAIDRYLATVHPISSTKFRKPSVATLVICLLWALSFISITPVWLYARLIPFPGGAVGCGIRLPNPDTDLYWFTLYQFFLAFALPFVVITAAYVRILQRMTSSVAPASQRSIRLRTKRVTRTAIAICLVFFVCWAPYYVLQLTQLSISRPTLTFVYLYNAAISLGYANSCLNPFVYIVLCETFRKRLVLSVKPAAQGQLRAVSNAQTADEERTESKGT

SMILES	IC50 [nM]
CC(C)N(C)c1nc2ccc(NC(=O)CCc3ccc(C(F)(F)F)cc3)cc2[nH]1 [Example 1, N-{2-[isopropyl(methyl)amino]-1H-benzimidazol-6-yl}-3-[4-(trifluoromethyl)phenyl]propanamide]	5.8
COc1ccc(-c2ccc(C(=O)Nc3ccc4nc(N(C)C(C)C)[nH]c4c3)cc2)cn1 [Example 17, N-{2-[isopropyl(methyl)amino]-1H-benzimidazol-6-yl}-4-(6-methoxy-3-pyridinyl)benzamide]	6.2
CC(C)N(C)c1nc2ccc(NC(=O)c3cnc(-c4ccc(F)cc4)cn3)cc2[nH]1 [Example 24, 5-(4-Fluorophenyl)-N-{2-[isopropyl(methyl)amino]-1H-benzimidazol-6-yl}-2-pyrazinecarboxamide hydrochloride]	3.3
